Literature values as cited in patent US20050214675A1, “Positive-type photosensitive composition” (FUJI PHOTO FILM CO., LTD., priority 2004, published 2005).
Where two headings read alike, the source gives them in different places.

Conditions: for Hammett value: cation of the sulfonium salt used in the plate, third embodiment Tables 1 to 4; for σ (sum of Hammett values of substituents on the aryl skeletons of the cation): o-position treated as p-position
[1] = compound list of first embodiment
[2] = compound list of second embodiment

Row | Hammett value | σ (sum of Hammett values of substituents on the aryl skeletons of the cation) [1] | σ (sum of Hammett values of substituents on the aryl skeletons of the cation) [2] | Compound
1 | 0.69 | – | – | COc1cc(O)c(C(=O)c2ccccc2)cc1S(=O)(=O)O [(77)]
2 | – | 0.29 | 0.29 | Cc1ccc([S+](c2ccc(Cl)cc2)c2ccc(Cl)cc2)cc1 [(84)]
3 | – | 0.26 | 0.26 | CC(C)(C)c1ccc([S+](c2ccc(Cl)cc2)c2ccc(Cl)cc2)cc1 [(85)]
4 | – | −0.59 | −0.59 | CC(C)(C)c1ccc([S+](c2ccc(C(C)(C)C)cc2)c2ccc(C(C)(C)C)cc2)cc1 [(86)]
5 | – | 0.186 | 0.186 | Fc1ccc([S+](c2ccc(F)cc2)c2ccc(F)cc2)cc1 [(87)]
6 | – | −0.804 | −0.804 | COc1ccc([S+](c2ccc(OC)cc2)c2ccc(OC)cc2)cc1 [(88)]
7 | – | −0.848 | −0.848 | Cc1ccc([S+](c2ccc(C)cc2)c2cc(C)c(O)c(C)c2)cc1 [(89)]

Second part, the compound before the results:

Row | Compound | Hammett value | σ (sum of Hammett values of substituents on the aryl skeletons of the cation) [1] | σ (sum of Hammett values of substituents on the aryl skeletons of the cation) [2]
8 | O=C(O)c1c2ccccc2cc2ccccc12 [(28)] | 0 | – | –
9 | O=S(=O)(O)c1ccc(O)cc1 [(68)] | 0.69 | – | –
10 | O=Cc1ccccc1S(=O)(=O)O [(72)] | 0.69 | – | –
11 | COC(=O)c1cc(C(=O)OC)cc(S(=O)(=O)O)c1 [(75)] | 0.69 | – | –
12 | O=C(O)c1cc(C(=O)O)cc(S(=O)(=O)O)c1 [(76)] | 0.69 | – | –
